Test results reported in patent US20100278907A1, “Immunogenic Compositions Containing Ceramide and Methods of Use Thereof” (Medical College of Georgia Research Institute, Inc, priority 2008, published 2010).
Where two headings read alike, the source gives them in different places.

How the values were obtained:
[1] = cited from earlier work
[2] = acid-induced acute lung injury; cited from earlier work
[3] = LPS model; cited from earlier work
[4] = system: Aβ biogenesis; conditions: cited from earlier work
[5] = system: ceramide levels in F11 cells; assay: Flow cytometry of F11 cells stained with anti-ceramide rabbit IgG; assay type: cell-based; conditions: F11 cells incubated with myriocin, stained with rabbit IgG fraction; FIG. 2
Experimental: (§1) For immunocytochemistry, F11 cells were grown on coverslips. Cells were incubated with myriocin for 3 days to inhibit de novo ceramide biosynthesis and reduce ceramide levels. To determine whether the antibody would cross-react with glycosphingolipids in the membrane, cells were incubated for 4 days with […] N-butyl-deoxynojirimycin (NB-dNJ), a glucosylceramide (GlcCer) synthase inhibitor known to inhibit glycosphingolipid biosynthesis. Control and myriocin- or NB-dNJ-treated cells were fixed with 4% p-formaldehyde in PBS for 20 min at room temperature. To release endogenous ceramide from sphingomyelin, fixed cells were incubated for 1 hour at 37° C. with 0.3 units (1 U/ml) of Staphylococcus aureus sphingomyelinase. Immunocytochemistry for ceramide was performed without the use of detergent for permeabilization. […] Confocal fluorescence microscopy was performed using a Zeiss LSM510 confocal laser scanning microscope equipped with a two photon argon laser at 488 nm (Cy2), 543 inn (Cy3), or 633 nm (Alexa Fluor: 647). […] Cells were washed with PBS, and stained cells were analyzed by flow cytometry, measuring the fluorescence emission at 530 nm. […]

[6] = system: ceramide levels in F11 cells; assay: Ceramide levels by high-performance thin-layer chromatography; assay type: cell-based; conditions: myriocin incubation of F11 cells for 3 days; HPTLC
[7] = system: ceramide levels in F11 cells; assay: Immunocytochemistry for ceramide in treated F11 cells; assay type: cell-based
Experimental: as §1

[8] = repeated lung lavage; given together with surfactant; cited from earlier work
[9] = system: TNF-α effect on endothelium-dependent vasorelaxation; conditions: cited from earlier work

Compound: S=C(S)OC1CC2CC1C1CCCC21 (stereo not shown) [D609, tricyclodecan-9-yl-xanthate]
- protection from ischaemia-induced cell death ([1]; administered before the ischaemic period): reproduces preconditioning protection
- oxygenation [2]: improves
- pulmonary edema [2]: attenuates
- mortality [3]: attenuated
- pulmonary edema formation [3]: attenuated

Compound: CCCCCCCCCCCCC/C=C/[C@@H](O)[C@H](CO)NC(=O)CCCCC [C6 ceramide, N-hexanoylsphingosine]
- Aβ generation ([4]; FB1 treated cells): restored
- biogenesis of Aβ ([4]; exogenous C6 ceramide): promoted

Compound: CCCCCCC(=O)CCCCCC/C=C/C[C@@H](O)[C@H](O)[C@@](N)(CO)C(=O)O [myriocin]
- reduction of fluorescence intensity compared with control cells [5]: about 40%
- reduction of ceramide levels [6]: about 50%
- intensity of the ceramide immunostaining signal ([7]; F11 cells incubated with myriocin for 3 days, rabbit IgG and polyclonal IgM): reduced

Compound: CCCCCCCCCCCCC/C=C/[C@@H](O)[C@H](CO)NC(C)=O [C2-ceramide, N-acetyl sphingosine]
- ischaemic preconditioning-like protection ([1]; cell-permeable C2-ceramide compared with TNF-α preconditioning): TNF-a protection is reproduced

Compound: CCCCN1C[C@H](O)[C@@H](O)[C@H](O)[C@H]1CO [NB-dNJ, N-butyl-deoxynojirimycin]
- intensity of the ceramide immunostaining signal ([7]; F11 cells incubated for 4 days with 250 mM NB-dNJ): not changed significantly

Compound: CN(C)CCCN1c2ccccc2CCc2ccccc21 [imipramine]
- duration of the beneficial effect [8]: 24 h
- edema formation [8]: ameliorates
- oxygenation [8]: advances
- pulmonary inflammation [3]: attenuated

Compound: CNCCCN1c2ccccc2CCc2ccccc21 [desipramine]
- effect on TNF-α inhibition of endothelium-dependent vasorelaxation [9]: neutralizes

Compound: CCCCCCCC/C=C\CCCCCCCC(=O)NCCO [N-oleoylethanolamine]
- effect on preconditioning-like protection provided by TNF-a or C2-ceramide ([1]; ceramidase inhibitor): hinders
- effect on protection induced by ischaemic preconditioning ([1]; ceramidase inhibitor): does not hinder
